Laboratory results reported in patent US6603046B1, “Bis-aromatic a,β-unsaturated ketones” (Lica Pharmaceuticals A/S, priority 1992, dated 2003).
Converted amounts (≈) assume the structure as drawn. Read-outs that look alike come from different tables or passages of the source.

Legend:
[1] = tested on: Strain = H37RV; assay: MIC with and without 10% human serum; type: cell-based; details: Mycobacterium tuberculosis, H37RV
[2] = tested on: Strain = H37RV; details: cited from earlier work
[3] = tested on: chloroquine resistant P. falciparum DD2 strain; assay: In vitro growth of P. falciparum DD2, 3H-hypoxanthine uptake (Example 15); type: cell-based, Plasmodium falciparum; details: title: percentage inhibition of 3H-hypoxanthine uptake
[4] = with 10% Human Serum, read-out: MIC+serum
[5] = without 10% Human Serum, read-out: MIC−serum

## CC1COc2c(N3CCN(C)CC3)c(F)cc3c(=O)c(C(=O)O)cn1c23 (centres unmarked) [Ofloxacin]
[1]; [4]
  MIC: 0.5 µg/mL (≈ 1.38 µM)
[1]; [5]
  MIC: 0.5 µg/mL (≈ 1.38 µM)
[2]
  protein binding: (5% protein

## CC(=O)O[C@H]1C[C@@]2(C)[C@@H](C[C@@H](O)[C@H]3[C@@]4(C)CC[C@@H](O)[C@@H](C)[C@@H]4CC[C@@]32C)/C1=C(\CCC=C(C)C)C(=O)O [Fusidic acid]
[1]; [4]
  MIC: 32 µg/mL (≈ 61.9 µM)
[1]; [5]
  MIC: 8 µg/mL (≈ 15.5 µM)
[2]
  protein binding: (90% protein

## COc1ccc(/C=C/C(=O)c2ccc(O)cc2)cc1OC [3,4-Dimethoxy-4′-hydroxychalcone, 3,4-dimethoxy-4′-hydroxychalcone]
[3]; 0.5 μg/ml
  Growth in % of control (mean ± SEM): 9.3 ± 9.2%
[3]; 1 μg/ml
  Growth in % of control (mean ± SEM): 7.1 ± 8.1%
[3]; 5 μg/ml
  Growth in % of control (mean ± SEM): 48.5 ± 8.4%
[3]; 10 μg/ml
  Growth in % of control (mean ± SEM): 82.6 ± 4.7%
other
  melting point: 193 to 198 °C

## CC[C@@H](CO)NCCN[C@@H](CC)CO [Ethambutol]
[1]; [4]
  MIC: 2 µg/mL (≈ 9.79 µM)
[1]; [5]
  MIC: 1 µg/mL (≈ 4.89 µM)
[2]
  protein binding: (40% protein
